Data: patent publication US12370161B2, “Composition for treating atopy or pruritus comprising N-acetyl or N-acyl amino acid” (STEMDR INC., priority 2017, dated 2025)

Tested on: atopic dermatitis-induced Nc/Nga mouse
Experiment: SCORAD clinical skin score, DNFB-induced atopic dermatitis in Nc/Nga mouse
Assay type: in vivo
Parameters: key to Mouse 1 Erythema / Mouse 2 Eschar / Mouse 2 Dryness / Mouse 2 Abrasion / Mouse 1 Edema / Mouse 1 Eschar / Mouse 1 Dryness / Mouse 1 Abrasion / Mouse 2 Erythema / Mouse 2 Edema / Mouse 3 Erythema / Mouse 3 Edema / Mouse 3 Eschar / Mouse 3 Dryness / Mouse 3 Abrasion: 0 = no symptom, 1 = mild, 2 = moderate, 3 = severe; key to Mouse 1 Sum / Mean (of Sum, SCORAD) / Mouse 3 Sum: sum of individual symptom scores, each graded 0-3
Settings: for Mouse 1 Erythema: DNFB Nc/Nga (FIG. 8), 0.1% in PBS, 200 μL on back skin daily day 15-21; for Mouse 1 Erythema / Mouse 1 Abrasion / Mouse 1 Dryness / Mouse 1 Edema / Mouse 1 Eschar / Mouse 1 Lichenification / Mouse 2 Abrasion / Mouse 2 Dryness / Mouse 2 Edema / Mouse 2 Erythema / Mouse 2 Eschar / Mouse 2 Lichenification / Mouse 3 Abrasion / Mouse 3 Dryness / Mouse 3 Edema / Mouse 3 Erythema / Mouse 3 Eschar / Mouse 3 Lichenification: graded per Example 4; for Mouse 1 Abrasion / Mouse 1 Dryness / Mouse 1 Edema / Mouse 1 Eschar / Mouse 1 Lichenification / Mouse 1 Sum / Mouse 2 Abrasion / Mouse 2 Dryness / Mouse 2 Edema / Mouse 2 Erythema / Mouse 2 Eschar / Mouse 2 Lichenification / Mouse 2 Sum / Mouse 3 Abrasion / Mouse 3 Dryness / Mouse 3 Edema / Mouse 3 Erythema / Mouse 3 Eschar / Mouse 3 Lichenification / Mouse 3 Sum / Mean (of Sum, SCORAD): DNFB Nc/Nga, 0.1% topical day 15-21; for Mouse 1 Sum / Mouse 2 Sum / Mouse 3 Sum: sum of individual scores; for Mean (of Sum, SCORAD): mean of 3 mice
Procedure: In order to establish a model more similar to an atopy model than that of the Balb/c mice, atopy was induced in Nc/Nga mouse mice. Specifically, after inducing DNFB sensitization by applying 100 μL of 0.35% 2,4-dinitrofluorobenzene (DNFB) in acetone/olive oil (3:1) on the shaved back skin, dermatitis was induced by applying 100 μL of 0.15% DNFB for 4-20 days, every other day. Control mice were treated with a vehicle of the same volume (FIG. 1B).
After dissolving an N-acetyl or N-acylamino acid in phosphate-buffered saline to 0.1%, 200 μL of the solution was applied on the back skin of the mice every day, from day 22 until day 28 for the Balb/c atopic dermatitis model, and from day 15 until day 21 for the Nc/Nga atopic dermatitis model. When the N-acetyl or N-acylamino acid was treated together with DNFB, they were treated with 12-hour intervals in order to avoid direct reaction between the DNFB and the N-acetyl or N-acylamino acid. A non-treated group and a 2,4-dinitrofluorobenzene (DNFB) group were treated with phosphate-buffered saline of the same volume (FIGS. 1A-1B). As the N-acetylamino acid, products purchased from Sigma-Aldrich (USA), MP scientific (USA), TCI (Tokyo Chemical Industry, Japan), Santacruz (USA), etc. were used without purification.
The degree of skin soothing and the severity of atopic dermatitis were evaluated macroscopically according to the previously established SCORAD (SCORing Atopic Dermatitis) method (Oranje et al., 2007). The degree of symptoms such as edema, erythema, eschar, dryness, abrasion, lichenification, etc. was graded from 0 to 3 (0, no symptom; 1, mild; 2, moderate; 3, severe). The overall dermatitis score was determined from the sum of all individual scores (Table 1). The assessment was performed by an investigator who was blind to the grouping of the mice.
Skin-soothing effect and the severity of dermatitis were evaluated for the acyl derivatives of tryptophan synthesized in Example 9, the acyl derivative of alanine synthesized in Example 10 and N-palmitoylalanine (purchased from Santacruz (USA)) according to the method of Example 4 (Table 2)

CCCCCCCCCCCCCCCC(=O)N[C@@H](C)C(=O)O [N-palmitoyl L-alanine, N-palmitoyl-L-alanine]
Mouse 1 Erythema: 1 | Mouse 1 Abrasion: 1 | Mouse 1 Dryness: 1 | Mouse 1 Edema: 2 | Mouse 1 Eschar: 1 | Mouse 1 Lichenification: 1 | Mouse 1 Sum: 7 | Mouse 2 Abrasion: 1 | Mouse 2 Dryness: 1 | Mouse 2 Edema: 1 | Mouse 2 Erythema: 2 | Mouse 2 Eschar: 1 | Mouse 2 Lichenification: 1 | Mouse 2 Sum: 7 | Mouse 3 Abrasion: 2 | Mouse 3 Dryness: 2 | Mouse 3 Edema: 1 | Mouse 3 Erythema: 2 | Mouse 3 Eschar: 1 | Mouse 3 Lichenification: 1 | Mouse 3 Sum: 9 | Mean (of Sum, SCORAD): 6.7

CCCCCCCCCCCCCCCC(=O)N[C@@H](Cc1c[nH]c2ccccc12)C(=O)O [N-palmitoyl-L-tryptophan]
Mouse 1 Erythema: 1 | Mouse 1 Abrasion: 1 | Mouse 1 Dryness: 1 | Mouse 1 Edema: 2 | Mouse 1 Eschar: 1 | Mouse 1 Lichenification: 2 | Mouse 1 Sum: 6 | Mouse 2 Abrasion: 2 | Mouse 2 Dryness: 2 | Mouse 2 Edema: 1 | Mouse 2 Erythema: 2 | Mouse 2 Eschar: 2 | Mouse 2 Lichenification: 1 | Mouse 2 Sum: 10 | Mouse 3 Abrasion: 1 | Mouse 3 Dryness: 2 | Mouse 3 Edema: 2 | Mouse 3 Erythema: 2 | Mouse 3 Eschar: 1 | Mouse 3 Lichenification: 2 | Mouse 3 Sum: 10 | Mean (of Sum, SCORAD): 8.7

CCCCC(=O)N[C@@H](Cc1c[nH]c2ccccc12)C(=O)O [N-pentanoyl L-tryptophan, N-pentanoyl-L-tryptophan]
Mouse 1 Erythema: 2 | Mouse 1 Abrasion: 1 | Mouse 1 Dryness: 2 | Mouse 1 Edema: 2 | Mouse 1 Eschar: 2 | Mouse 1 Lichenification: 2 | Mouse 1 Sum: 11 | Mouse 2 Abrasion: 1 | Mouse 2 Dryness: 2 | Mouse 2 Edema: 2 | Mouse 2 Erythema: 2 | Mouse 2 Eschar: 1 | Mouse 2 Lichenification: 2 | Mouse 2 Sum: 10 | Mouse 3 Abrasion: 2 | Mouse 3 Dryness: 1 | Mouse 3 Edema: 2 | Mouse 3 Erythema: 2 | Mouse 3 Eschar: 2 | Mouse 3 Lichenification: 1 | Mouse 3 Sum: 10 | Mean (of Sum, SCORAD): 10.3

CCC(=O)N[C@@H](Cc1c[nH]c2ccccc12)C(=O)O [N-propionyl L-tryptophan, N-propionyl-L-tryptophan]
Mouse 1 Erythema: 2 | Mouse 1 Abrasion: 2 | Mouse 1 Dryness: 2 | Mouse 1 Edema: 2 | Mouse 1 Eschar: 2 | Mouse 1 Lichenification: 2 | Mouse 1 Sum: 12 | Mouse 2 Abrasion: 2 | Mouse 2 Dryness: 3 | Mouse 2 Edema: 2 | Mouse 2 Erythema: 2 | Mouse 2 Eschar: 2 | Mouse 2 Lichenification: 2 | Mouse 2 Sum: 13 | Mouse 3 Abrasion: 2 | Mouse 3 Dryness: 1 | Mouse 3 Edema: 1 | Mouse 3 Erythema: 2 | Mouse 3 Eschar: 2 | Mouse 3 Lichenification: 1 | Mouse 3 Sum: 9 | Mean (of Sum, SCORAD): 11.3

CCCCCCCCCCCCCCCCCC(=O)N[C@@H](Cc1c[nH]c2ccccc12)C(=O)O [N-stearyl-L-tryptophan, N-stearoyl-L-tryptophan]
Mouse 1 Erythema: 2 | Mouse 1 Abrasion: 2 | Mouse 1 Dryness: 2 | Mouse 1 Edema: 2 | Mouse 1 Eschar: 2 | Mouse 1 Lichenification: 2 | Mouse 1 Sum: 12 | Mouse 2 Abrasion: 2 | Mouse 2 Dryness: 2 | Mouse 2 Edema: 2 | Mouse 2 Erythema: 2 | Mouse 2 Eschar: 1 | Mouse 2 Lichenification: 1 | Mouse 2 Sum: 10 | Mouse 3 Abrasion: 2 | Mouse 3 Dryness: 1 | Mouse 3 Edema: 2 | Mouse 3 Erythema: 2 | Mouse 3 Eschar: 2 | Mouse 3 Lichenification: 2 | Mouse 3 Sum: 11 | Mean (of Sum, SCORAD): 11
